Measurements taken from patent US11000033B2, “Ketone or oxime compound, and herbicide” (NISSAN CHEMICAL CORPORATION, priority 2014, dated 2021).

Columns and labels:
Type in all cases: in vivo
[1] = tested on: Echinochloa oryzacola Vasing.; experiment: Test Example 1: herbicidal activity, application before weed generation in submerged conditions (symbol A); conditions: application herbicide amount 320 g/ha
How it was run: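 In a flooded pot test with alluvial soil, the emulsion-formulated compound was diluted with water to a predetermined amount and applied to the floodwater immediately on the sowing day. Pots were held in a greenhouse at 25–30 °C for 3 weeks before each weed was rated.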

[2] = tested on: Scirpus juncoides; experiment: Test Example 2: herbicidal activity, application during weed generation in submerged conditions (symbol B); conditions: Table 23; application herbicide amount 320 g/ha; grade 0-5 by criteria of Test Example 1
How it was run: (§1)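 Steps: fill pots with alluvial soil; add water to 4 cm depth; co-sow the three weeds; grow at 25° C. to 30° C. under glass; at 1–2 leaves, dose the floodwater with diluted emulsion; rate damage visually after 3 weeks.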

[3] = tested on: Monochoria vaginalis; experiment: Test Example 2: herbicidal activity, application during weed generation in submerged conditions (symbol C); conditions: Table 23; application herbicide amount 320 g/ha; grade 0-5 by criteria of Test Example 1
How it was run: as §1

[4] = tested on: Leptochloa chinensis; experiment: Test Example 3: herbicidal effect by foliage application, Wagner pot (symbol D); conditions: application herbicide amount 320 g/ha
How it was run: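 Post-emergence, paddy-type test: seedlings 14 d old in shallow-flooded (0.1–0.5 cm) alluvial soil, 25–30 °C greenhouse. Emulsion diluted to target rate, sprayed on leaves. Read-out: visual effect on each species at 3 weeks, per set criteria.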

[5] = tested on: Setaria viridis; experiment: Test Example 4: herbicidal effect by soil treatment (symbol G); conditions: application herbicide amount 320 g/ha
How it was run: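 Seeds were sown in sterilized diluvial soil, covered with about 1.5 cm of soil, and the soil surface was sprayed with a water-diluted emulsion of the compound at a predetermined rate. Plants grew in a greenhouse at 25° C. to 30° C.; effects were scored visually 3 weeks after application.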

[6] = tested on: beet; experiment: Test Example 4: effect on crop by soil treatment (symbol f); conditions: application herbicide amount 320 g/ha
How it was run: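 Diluvial soil (sterilized) in boxes; seeds placed spot-wise alongside weed species; ~1.5 cm covering soil. Greenhouse, 25–30° C.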

[7] = tested on: Digitaria ciliaris; experiment: Test Example 5: herbicidal effect by foliage application, plastic box (symbol F); conditions: 320 g/ha, 3 weeks after application
How it was run: (§2)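 Leaf-applied emulsion, water-diluted to a preset herbicide dose, on two-week-old seedlings raised in a 25° C. to 30° C. greenhouse; injury rated at 3 weeks using earlier criteria.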

[8] = tested on: Avena fatua; experiment: Test Example 5: herbicidal effect by foliage application, plastic box (symbol I); conditions: 320 g/ha, 3 weeks after application
How it was run: as §2

[9] = tested on: Alopecurus myosuroides; experiment: Test Example 5: herbicidal effect by foliage application, plastic box (symbol J); conditions: 320 g/ha, 3 weeks after application
How it was run: as §2

[10] = tested on: beet; experiment: Test Example 5: effect on crop by foliage application, plastic box (symbol f); conditions: 320 g/ha, 3 weeks after application
How it was run: (§3)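 Box culture: sterile diluvial soil, seeds spot-sown, ~1.5 cm cover, raised under glass at 25–30° C.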

[11] = tested on: rapeseed; experiment: Test Example 5: effect on crop by foliage application, plastic box (symbol g); conditions: 320 g/ha, 3 weeks after application
How it was run: as §3

Structure (SMILES)	Herbicidal effect grade, A: Echinochloa oryzacola Vasing. [1]	Herbicidal effect grade, B: Scirpus juncoides [2]	Herbicidal effect grade, C: Monochoria vaginalis [3]	herbicidal effect on D (Leptochloa chinensis), grade 0-5 [4]	G (Setaria viridis) herbicidal effect grade [5]	f (beet) effect on crop grade [6]	F: Digitaria ciliaris, herbicidal effect grade [7]	I: Avena fatua, herbicidal effect grade [8]	J: Alopecurus myosuroides, herbicidal effect grade [9]	f: beet, effect on crop grade [10]	g: rapeseed, effect on crop grade [11]
CC(CC1CC(O)=C(c2c(C)cc(C)cc2C)C1=O)=NOCC(C)O (centres unmarked) [1-027]	4 (Herbicidal ratio of 70% or higher and lower than 90%)	3 (Herbicidal ratio of 40% or higher and lower than 70%)	0 (Herbicidal ratio of 5% or lower (almost no effect))	5 (Herbicidal ratio of 90% or more (almost completely withered))	3 (Herbicidal ratio of 40% or higher and lower than 70%)	0 (Herbicidal ratio of 5% or lower (almost no effect))	5 (Herbicidal ratio of 90% or more (almost completely withered))	5 (Herbicidal ratio of 90% or more (almost completely withered))	5 (Herbicidal ratio of 90% or more (almost completely withered))	0 (Herbicidal ratio of 5% or lower (almost no effect))	4 (Herbicidal ratio of 70% or higher and lower than 90%)
CC(CC1CC(O)=C(c2c(C)cc(C)cc2C)C1=O)=NOCC(F)(F)F (centres unmarked) [1-028]	5 (Herbicidal ratio of 90% or more (almost completely withered))	4 (Herbicidal ratio of 70% or higher and lower than 90%)	0 (Herbicidal ratio of 5% or lower (almost no effect))	5 (Herbicidal ratio of 90% or more (almost completely withered))	5 (Herbicidal ratio of 90% or more (almost completely withered))	0 (Herbicidal ratio of 5% or lower (almost no effect))	5 (Herbicidal ratio of 90% or more (almost completely withered))	4 (Herbicidal ratio of 70% or higher and lower than 90%)	5 (Herbicidal ratio of 90% or more (almost completely withered))	0 (Herbicidal ratio of 5% or lower (almost no effect))	4 (Herbicidal ratio of 70% or higher and lower than 90%)
CSCCON=C(C)CC1CC(O)=C(c2c(C)cc(C)cc2C)C1=O (centres unmarked) [1-029]	4 (Herbicidal ratio of 70% or higher and lower than 90%)	0 (Herbicidal ratio of 5% or lower (almost no effect))	0 (Herbicidal ratio of 5% or lower (almost no effect))	5 (Herbicidal ratio of 90% or more (almost completely withered))	5 (Herbicidal ratio of 90% or more (almost completely withered))	0 (Herbicidal ratio of 5% or lower (almost no effect))	5 (Herbicidal ratio of 90% or more (almost completely withered))	5 (Herbicidal ratio of 90% or more (almost completely withered))	5 (Herbicidal ratio of 90% or more (almost completely withered))	0 (Herbicidal ratio of 5% or lower (almost no effect))	4 (Herbicidal ratio of 70% or higher and lower than 90%)
CON=C(C)CC1CC(OCC#C[Si](C)(C)C)=C(c2c(C)cc(C)cc2C)C1=O (centres unmarked) [1-031]	5 (Herbicidal ratio of 90% or more (almost completely withered))	2 (Herbicidal ratio of 20% or higher and lower than 40%)	0 (Herbicidal ratio of 5% or lower (almost no effect))	4 (Herbicidal ratio of 70% or higher and lower than 90%)	0 (Herbicidal ratio of 5% or lower (almost no effect))	0 (Herbicidal ratio of 5% or lower (almost no effect))	1 (Herbicidal ratio of 5% or higher and lower than 20%)	3 (Herbicidal ratio of 40% or higher and lower than 70%)	3 (Herbicidal ratio of 40% or higher and lower than 70%)	0 (Herbicidal ratio of 5% or lower (almost no effect))	3 (Herbicidal ratio of 40% or higher and lower than 70%)
CON=C(C)C(C)C1CC(O)=C(c2c(C)cc(C)cc2C)C1=O (centres unmarked) [1-032]	5 (Herbicidal ratio of 90% or more (almost completely withered))	4 (Herbicidal ratio of 70% or higher and lower than 90%)	3 (Herbicidal ratio of 40% or higher and lower than 70%)	5 (Herbicidal ratio of 90% or more (almost completely withered))	5 (Herbicidal ratio of 90% or more (almost completely withered))	4 (Herbicidal ratio of 70% or higher and lower than 90%)	5 (Herbicidal ratio of 90% or more (almost completely withered))	5 (Herbicidal ratio of 90% or more (almost completely withered))	5 (Herbicidal ratio of 90% or more (almost completely withered))	3 (Herbicidal ratio of 40% or higher and lower than 70%)	4 (Herbicidal ratio of 70% or higher and lower than 90%)
CON=C(C)CC1CC(OC(=O)C(C)(C)OC(C)=O)=C(c2c(C)cc(C)cc2C)C1=O (centres unmarked) [1-034]	5 (Herbicidal ratio of 90% or more (almost completely withered))	3 (Herbicidal ratio of 40% or higher and lower than 70%)	3 (Herbicidal ratio of 40% or higher and lower than 70%)	5 (Herbicidal ratio of 90% or more (almost completely withered))	5 (Herbicidal ratio of 90% or more (almost completely withered))	4 (Herbicidal ratio of 70% or higher and lower than 90%)	5 (Herbicidal ratio of 90% or more (almost completely withered))	5 (Herbicidal ratio of 90% or more (almost completely withered))	5 (Herbicidal ratio of 90% or more (almost completely withered))	4 (Herbicidal ratio of 70% or higher and lower than 90%)	5 (Herbicidal ratio of 90% or more (almost completely withered))
CON=C(C)CC1CC(OC(=O)CCC2CCCCC2)=C(c2c(C)cc(C)cc2C)C1=O (centres unmarked) [1-035]	5 (Herbicidal ratio of 90% or more (almost completely withered))	4 (Herbicidal ratio of 70% or higher and lower than 90%)	4 (Herbicidal ratio of 70% or higher and lower than 90%)	5 (Herbicidal ratio of 90% or more (almost completely withered))	5 (Herbicidal ratio of 90% or more (almost completely withered))	3 (Herbicidal ratio of 40% or higher and lower than 70%)	5 (Herbicidal ratio of 90% or more (almost completely withered))	5 (Herbicidal ratio of 90% or more (almost completely withered))	5 (Herbicidal ratio of 90% or more (almost completely withered))	2 (Herbicidal ratio of 20% or higher and lower than 40%)	4 (Herbicidal ratio of 70% or higher and lower than 90%)
